Columns and labels:
Type in all cases: cell-based, human
[1] = tested on: A549 cells; assay: Colony formation assay, A549; conditions: A549, 100 nM, 72 hours
Description: A549 and H1299 cells were seeded in 12 well plates at approximately 100 cells per well. In Example 8, wells were treated with DMSO, (+)-JQ1 or NZ-147. In Example 9, cells were treated with DMSO or NZ-175. Colonies were allowed to form over 120 h. Cells were fixed and stained with crystal violet staining solution, prepared in 70% ethanol.
A colony formation assay was performed in A549 and H1299 cells, which were treated with DMSO, (+)-JQ1 or NZ-147 at 100 nM for 72 hours and stained with crystal violet (FIG. 10A).
A colony formation assay was performed in A549 and H1299 cells, which were treated with DMSO or NZ-175 at 100 nM for 72 hours and stained with crystal violet (FIG. 16A).

[2] = tested on: A549 cells; assay: Cell viability assay (CellTiter Glo), A549; conditions: A549, increasing concentrations
Description: A549 and H1299 cells were seeded in OptiPlate-384 well plates and treated with increasing concentrations of (+)-JQ1 or NZ-147 from 0 μM to 10 µM in Example 8 and with increasing concentrations of NZ-175 from 0 µM to 10 µM in Example 9. Cells were treated for 120 h before using the luciferase based CellTiter Glo assay (Promega) to measure cell viability.
Cell viability assay was performed in A549 and H1299 cells, which were treated with different concentrations of (+)-JQ1 or NZ-147 at 100 nM for 72 hours (FIG. 10B).
Cell viability assay was performed in A549 and H1299 cells, which were treated with different concentrations of NZ-147 at 100 nM for 72 hours (FIG. 16B).

[3] = tested on: c-MYC controlled genes; assay: RT-qPCR of c-MYC controlled genes in CAL51 cells; conditions: 100 nM, 72 hours, vs (+)-JQ1 at equivalent concentration and duration
Description: FIG. 11. RT-qPCR quantification of expression of c-MYC controlled genes in CAL51 triple negative breast cancer cell line treated with DMSO, 100 nM (+)-JQ1 or 100 nM NZ-147 for 72 hours. […] MDM2 (A) and CCNE (B) are controlled by cMYC in oncogenic settings, PAICS (C) is a putative target of c-MYC, and eIF4E (D) is a known target of cMYC. n=3, *p<0.05, ** p<0.01, *** p<0.001.
RNA was extracted with the Qiagen RNeasy Mini kit following manufacturers protocol. RT-qPCR SYBR assay was carried out with Mesa Blue following manufacturers instructions, 80 ng RNA per well, experimental triplicates, BioRad CTX Connect qPCR machine. RNA levels were normalized to GAPDH. Experiments were done in biological triplicate. The primers used were as follows:
The levels of c-MYC controlled genes (determined using RT-qPCR) in CAL51 triple negative breast cancer cell line after treatment with DMSO, 100 nM (+)-JQ1 or 100 nM NZ-147 for 72 hours is shown in FIG. 11. In particular MDM2 (FIG. 11A) and CCNE (FIG. 11B) are controlled by cMYC in oncogenic settings, PAICS (FIG. 11C) is a putative target of c-MYC, and elF4E (FIG. 11D) is a known target of c-MYC.

For `Cc1sc2c(c1C)C(c1ccc(Cl)cc1)=N[C@@H](CC(=O)NCCOCCOCCOCCn1cc(COc3ccc([C@@H](NC(=O)Nc4cc(C(F)(F)F)cc(C(F)(F)F)c4)C(=O)Nc4ccc(F)cc4F)cc3)nn1)c1nnc(C)n1-2` [NZ-147, (R)-2-(3-(3,5-bis(trifluoromethyl)phenyl)ureido)-2-(4-((1-(1-((S)-4-(4-chlorophenyl)-2,3,9-trimethyl-6H-thieno[3,2-f][1,2,4]triazolo[4,3-a][1,4]diazepin-6-yl)-2-oxo-6,9, 12-trioxa-3-azatetradecan-14-yl)-1H-1,2,3-triazol-4-yl)methoxy)phenyl)-N-(2,4-difluorophenyl) acetamide], the colony formation [1] was “Fewest colonies formed”, the “percentage of live cells” value [2] was “dose-dependent decrease in the percentage of live cells” and the “impact on c-MYC controlled genes vs (+)-JQ1” value [3] was “significantly more profound impact”.

From patent US20260335323A1, “CHIMERIC MOLECULE” (UCL Business Ltd, priority 2023, published 2026)
